Assay results taken from ChEMBL document CHEMBL5385856, “Novel 1,4,5,6-tetrahydrocyclopenta[d]imidazole-5-carboxamide-based JNK3 inhibitors: Design, synthesis, molecular docking, and therapeutic potential in neurodegenerative diseases” (Eur J Med Chem, 2023).
Calls of active or inactive are those of the source. The rule behind the calls is not given here.

Tests used:
[1] = biological target: T1, Mitogen-activated protein kinase 10 (Homo sapiens, UniProt P53779); experiment: Inhibition of JNK3 (unknown origin) using ATF2 as substrate incubated for 40 mins in presence of [gamma33P]ATP by scintillation counting analysis
T1 sequence (P53779 whole entry): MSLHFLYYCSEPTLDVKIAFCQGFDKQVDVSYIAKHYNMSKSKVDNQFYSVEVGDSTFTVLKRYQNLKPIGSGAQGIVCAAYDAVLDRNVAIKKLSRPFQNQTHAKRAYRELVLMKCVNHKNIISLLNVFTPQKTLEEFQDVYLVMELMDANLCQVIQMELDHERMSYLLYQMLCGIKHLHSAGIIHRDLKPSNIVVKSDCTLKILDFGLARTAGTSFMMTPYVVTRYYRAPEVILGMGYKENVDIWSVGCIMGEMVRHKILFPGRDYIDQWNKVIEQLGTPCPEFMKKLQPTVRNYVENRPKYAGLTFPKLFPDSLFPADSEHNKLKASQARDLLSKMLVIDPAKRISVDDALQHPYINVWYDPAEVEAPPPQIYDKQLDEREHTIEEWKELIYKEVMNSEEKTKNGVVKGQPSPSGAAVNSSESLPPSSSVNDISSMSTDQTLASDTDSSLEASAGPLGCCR

[2] = biological target: Glycogen synthase kinase-3 beta (Homo sapiens, UniProt P49841); experiment: Inhibition of GSK3beta (unknown origin) incubated for 20 mins in presence of 33P-ATP
Chain of Glycogen synthase kinase-3 beta (P49841 whole entry): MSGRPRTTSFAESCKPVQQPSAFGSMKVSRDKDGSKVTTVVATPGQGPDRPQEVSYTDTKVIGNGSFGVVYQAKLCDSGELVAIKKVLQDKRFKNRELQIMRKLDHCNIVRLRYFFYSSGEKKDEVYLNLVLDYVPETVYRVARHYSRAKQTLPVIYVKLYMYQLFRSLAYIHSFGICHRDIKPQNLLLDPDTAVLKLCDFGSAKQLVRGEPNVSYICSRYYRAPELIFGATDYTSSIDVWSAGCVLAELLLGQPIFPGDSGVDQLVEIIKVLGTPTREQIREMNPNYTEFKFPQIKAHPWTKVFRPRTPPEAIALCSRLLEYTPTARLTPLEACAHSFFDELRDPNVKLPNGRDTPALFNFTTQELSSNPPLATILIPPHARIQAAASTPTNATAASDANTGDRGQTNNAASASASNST

Cortical neurone = experiment: cells; settings: Rattus norvegicus, 120 h, read-out: Activity
[3] = biological target: T2, Mitogen-activated protein kinase 8 (Homo sapiens, UniProt P45983); experiment: Inhibition of JNK1 (unknown origin) incubated for 20 mins in presence of 33P-ATP
T2 sequence (P45983 whole entry): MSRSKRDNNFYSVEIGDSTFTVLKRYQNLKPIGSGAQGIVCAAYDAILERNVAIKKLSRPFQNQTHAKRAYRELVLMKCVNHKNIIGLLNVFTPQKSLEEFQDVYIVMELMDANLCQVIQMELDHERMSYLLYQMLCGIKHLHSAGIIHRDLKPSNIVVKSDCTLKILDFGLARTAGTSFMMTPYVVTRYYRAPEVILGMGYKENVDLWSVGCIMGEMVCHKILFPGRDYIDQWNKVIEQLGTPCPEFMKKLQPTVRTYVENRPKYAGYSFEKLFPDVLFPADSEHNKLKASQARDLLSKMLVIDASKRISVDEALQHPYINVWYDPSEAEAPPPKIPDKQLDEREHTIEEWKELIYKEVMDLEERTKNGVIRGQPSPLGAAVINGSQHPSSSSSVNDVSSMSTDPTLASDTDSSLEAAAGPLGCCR

[4] = biological target: T3, Mitogen-activated protein kinase 14 (Homo sapiens, UniProt Q16539); experiment: Inhibition of p38alpha (unknown origin) incubated for 20 mins in presence of 33P-ATP
T3 sequence (Q16539 whole entry): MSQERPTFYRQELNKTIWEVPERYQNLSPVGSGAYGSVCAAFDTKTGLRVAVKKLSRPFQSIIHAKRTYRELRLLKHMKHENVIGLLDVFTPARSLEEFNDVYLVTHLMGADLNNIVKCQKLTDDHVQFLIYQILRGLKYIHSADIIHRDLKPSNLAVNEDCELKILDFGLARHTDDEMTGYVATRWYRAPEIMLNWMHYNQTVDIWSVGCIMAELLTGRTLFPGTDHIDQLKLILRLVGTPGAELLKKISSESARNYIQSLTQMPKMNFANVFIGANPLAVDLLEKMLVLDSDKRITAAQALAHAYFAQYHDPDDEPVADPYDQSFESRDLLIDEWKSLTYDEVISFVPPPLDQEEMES

[5] = biological target: T4, Mitogen-activated protein kinase 9 (Homo sapiens, UniProt P45984); experiment: Inhibition of JNK2 (unknown origin) incubated for 20 mins in presence of 33P-ATP
Target sequence in this assay (P45984 whole entry): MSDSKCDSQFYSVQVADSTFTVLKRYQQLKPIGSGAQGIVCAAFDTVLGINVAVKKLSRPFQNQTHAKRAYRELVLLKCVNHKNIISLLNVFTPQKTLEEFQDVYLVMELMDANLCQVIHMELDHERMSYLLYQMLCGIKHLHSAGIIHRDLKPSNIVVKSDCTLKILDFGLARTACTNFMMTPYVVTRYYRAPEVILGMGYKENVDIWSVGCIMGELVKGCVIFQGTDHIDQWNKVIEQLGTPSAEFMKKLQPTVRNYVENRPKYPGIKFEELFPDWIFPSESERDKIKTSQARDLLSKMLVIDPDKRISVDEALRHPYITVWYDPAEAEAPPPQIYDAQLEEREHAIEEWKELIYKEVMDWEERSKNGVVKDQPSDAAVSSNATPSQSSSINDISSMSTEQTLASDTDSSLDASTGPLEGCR

[6] = biological target: T2, Mitogen-activated protein kinase 8; experiment: Inhibition of JNK1 (unknown origin) at 1 uM relative to control
[7] = biological target: T1, Mitogen-activated protein kinase 10; experiment: Inhibition of JNK3 (unknown origin) at 1 uM relative to control
[8] = biological target: T4, Mitogen-activated protein kinase 9; experiment: Inhibition of JNK2 (unknown origin) at 1 uM relative to control
Target sequence in this assay (P45984 whole entry, looked up): as the sequence (P45984 whole entry) above

[9] = biological target: T3, Mitogen-activated protein kinase 14; experiment: Inhibition of p38alpha (unknown origin) at 1 uM relative to control
[10] = biological target: Mitogen-activated protein kinase 10 (Rattus norvegicus) (UniProt P49187); experiment: Inhibition of JNK3 in primary rat cortex neuron cells assessed as reduction in Abeta1-42 induced APP phosphorylation by Western blotting analysis; assay type: cell-based; settings: Primary cortical neuron
Chain of Mitogen-activated protein kinase 10 (Rattus norvegicus) (P49187 whole entry): as the sequence (P53779 whole entry) above, with Q27H, Y32S, I33V, A34V counted along it

[11] = biological target: Mitogen-activated protein kinase 10 (Rattus norvegicus) (UniProt P49187); experiment: Inhibition of JNK3 in primary rat cortex neuron cells assessed as reduction in Abeta1-42 induced c-Jun phosphorylation by Western blotting analysis; assay type: cell-based; settings: Primary cortical neuron
[12] = Selectivity ratio of IC50 for inhibition of JNK1 (unknown origin) to IC50 for inhibition of JNK3 (unknown origin)

SMILES | IC50 [1] [nM] | other results
CNC(=O)C1Cc2nc(-c3ccc4c(c3)OCO4)n(-c3ccnc(N[C@@H]4CCN(C(=O)C5CC5)C4)n3)c2C1 (stereo not given in full) | 93.9 | 
CCOC(=O)C1Cc2nc(-c3ccc4ccccc4c3)n(-c3ccnc(N[C@H]4CCN(C(=O)C5CC5)C4)n3)c2C1 (stereo not given in full) | 23.4 | 
CCOC(=O)C1Cc2nc(-c3ccc4c(c3)CCO4)n(-c3ccnc(N[C@@H]4CCCN(C(=O)C5CC5)C4)n3)c2C1 (stereo not given in full) | 10.4 | 
NC(=O)C1Cc2nc(-c3ccc4c(c3)CCO4)n(-c3ccnc(N[C@@H]4CCN(C(=O)C5CC5)C4)n3)c2C1 (stereo not given in full) | 63 | 
CCOC(=O)C1Cc2nc(-c3ccc4c(c3)OCO4)n(-c3ccnc(N[C@H]4CCN(C(=O)C5CC5)C4)n3)c2C1 (stereo not given in full) | 243 | 
CCOC(=O)C1Cc2nc(-c3ccc4c(c3)CCO4)n(-c3ccnc(N[C@H]4CCN(C(=O)C5CC5)C4)n3)c2C1 (stereo not given in full) | 158 | 
CCOC(=O)C1Cc2nc(-c3ccc4c(c3)OCO4)n(-c3ccnc(N[C@@H]4CCCN(C(=O)C5CC5)C4)n3)c2C1 (stereo not given in full) | 1.2 | 
NC(=O)C1Cc2nc(-c3ccc4ccccc4c3)n(-c3ccnc(N[C@@H]4CCCN(C(=O)C5CC5)C4)n3)c2C1 (stereo not given in full) | 1.72 | 
NC(=O)C1Cc2nc(-c3ccc(Cl)c(Cl)c3)n(-c3ccnc(N[C@@H]4CCN(C(=O)C5CC5)C4)n3)c2C1 (stereo not given in full) | 16.4 | 
CCOC(=O)C1Cc2nc(-c3ccc4c(c3)OCO4)n(-c3ccnc(N[C@H]4CCCN(C(=O)C5CC5)C4)n3)c2C1 (stereo not given in full) | 10.5 | 
NC(=O)C1Cc2nc(-c3ccc4c(c3)OCO4)n(-c3ccnc(N[C@H]4CCN(C(=O)C5CC5)C4)n3)c2C1 (stereo not given in full) | 135 | 
CCOC(=O)C1Cc2nc(-c3ccc(Cl)c(Cl)c3)n(-c3ccnc(N[C@@H]4CCN(C(=O)C5CC5)C4)n3)c2C1 (stereo not given in full) | 4.33 | 
NC(=O)C1Cc2nc(-c3ccc4c(c3)CCO4)n(-c3ccnc(N[C@H]4CCN(C(=O)C5CC5)C4)n3)c2C1 (stereo not given in full) | 87.3 | 
NC(=O)C1Cc2nc(-c3ccc(F)c(C(F)(F)F)c3)n(-c3ccnc(N[C@H]4CCN(C(=O)C5CC5)C4)n3)c2C1 (stereo not given in full) | 183 | 
CNC(=O)C1Cc2nc(-c3ccc(Cl)c(Cl)c3)n(-c3ccnc(N[C@@H]4CCN(C(=O)C5CC5)C4)n3)c2C1 (stereo not given in full) | 9.36 | 
CCOC(=O)C1Cc2nc(-c3ccc(Cl)c(Cl)c3)n(-c3ccnc(N[C@H]4CCCN(C(=O)C5CC5)C4)n3)c2C1 (stereo not given in full) | 1.11 | IC50 [2]: 4860 nM; viability at 10 µM (Cortical neurone): 63.2%; IC50 [3]: 158 nM; IC50 [4]: 285 nM; IC50 [5]: 14.8 nM
CCOC(=O)C1Cc2nc(-c3ccc(Cl)c(Cl)c3)n(-c3ccnc(N[C@H]4CCN(C(=O)C5CC5)C4)n3)c2C1 (stereo not given in full) | 28.2 | 
CCOC(=O)C1Cc2nc(-c3ccc(F)c(C(F)(F)F)c3)n(-c3ccnc(N[C@H]4CCCN(C(=O)C5CC5)C4)n3)c2C1 (stereo not given in full) | 52.8 | 
CCOC(=O)C1Cc2nc(-c3ccc4ccccc4c3)n(-c3ccnc(N[C@@H]4CCN(C(=O)C5CC5)C4)n3)c2C1 (stereo not given in full) | 6.82 | 
CNC(=O)C1Cc2nc(-c3ccc(Cl)c(Cl)c3)n(-c3ccnc(N[C@H]4CCN(C(=O)C5CC5)C4)n3)c2C1 (stereo not given in full) | 10.2 | 
NC(=O)C1Cc2nc(-c3ccc(Cl)c(Cl)c3)n(-c3ccnc(N[C@@H]4CCCN(C(=O)C5CC5)C4)n3)c2C1 (stereo not given in full) | 0.73 | inhibition [6]: 80%; IC50 [2]: 470 nM; inhibition [7]: 100%; inhibition [8]: 80%; inhibition [9]: 80%; IC50 [3]: 160 nM; IC50 [4]: 70.6 nM; IC50 [5]: 16.6 nM
CNC(=O)C1Cc2nc(-c3ccc(F)c(C(F)(F)F)c3)n(-c3ccnc(N[C@@H]4CCCN(C(=O)C5CC5)C4)n3)c2C1 (stereo not given in full) | 700 | 
NC(=O)C1Cc2nc(-c3ccc4ccccc4c3)n(-c3ccnc(N[C@H]4CCCN(C(=O)C5CC5)C4)n3)c2C1 (stereo not given in full) | 1.76 | viability at 10 µM (Cortical neurone): 58.5%; inhibition [10]: Active; inhibition [11]: Active
CNC(=O)C1Cc2nc(-c3ccc(F)c(C(F)(F)F)c3)n(-c3ccnc(N[C@H]4CCN(C(=O)C5CC5)C4)n3)c2C1 (stereo not given in full) | 601 | 
CCOC(=O)C1Cc2nc(-c3ccc4c(c3)CCO4)n(-c3ccnc(N[C@@H]4CCN(C(=O)C5CC5)C4)n3)c2C1 (stereo not given in full) | 21.5 | 

SMILES | IC50 [1] [nM] | other results
NC(=O)C1Cc2nc(-c3ccc4c(c3)OCO4)n(-c3ccnc(N[C@@H]4CCCN(C(=O)C5CC5)C4)n3)c2C1 (stereo not given in full) | 36.1 | 
CCOC(=O)C1Cc2nc(-c3ccc(Cl)c(Cl)c3)n(-c3ccnc(N[C@@H]4CCCN(C(=O)C5CC5)C4)n3)c2C1 (stereo not given in full) | 0.607 | IC50 [2]: 195 nM; IC50 [3]: 82.8 nM; IC50 [4]: 53.2 nM; IC50 [5]: 8.56 nM
CCOC(=O)C1Cc2nc(-c3ccc4ccccc4c3)n(-c3ccnc(N[C@@H]4CCCN(C(=O)C5CC5)C4)n3)c2C1 (stereo not given in full) | 0.779 | IC50 [2]: 1250 nM; IC50 [3]: 56.1 nM; IC50 [4]: 84.7 nM; IC50 [5]: 11.9 nM
NC(=O)C1Cc2nc(-c3ccc(F)c(C(F)(F)F)c3)n(-c3ccnc(N[C@@H]4CCN(C(=O)C5CC5)C4)n3)c2C1 (stereo not given in full) | 300 | 
CNC(=O)C1Cc2nc(-c3ccc(F)c(C(F)(F)F)c3)n(-c3ccnc(N[C@H]4CCCN(C(=O)C5CC5)C4)n3)c2C1 (stereo not given in full) | 30.6 | 
NC(=O)C1Cc2nc(-c3ccc4c(c3)CCO4)n(-c3ccnc(N[C@H]4CCCN(C(=O)C5CC5)C4)n3)c2C1 (stereo not given in full) | 9.06 | viability at 10 µM (Cortical neurone): 53%
CCOC(=O)C1Cc2nc(-c3ccc4c(c3)CCO4)n(-c3ccnc(N[C@H]4CCCN(C(=O)C5CC5)C4)n3)c2C1 (stereo not given in full) | 31.4 | 
NC(=O)C1Cc2nc(-c3ccc4c(c3)CCO4)n(-c3ccnc(N[C@@H]4CCCN(C(=O)C5CC5)C4)n3)c2C1 (stereo not given in full) | 8.92 | 
CCOC(=O)C1Cc2nc(-c3ccc4c(c3)OCO4)n(-c3ccnc(N[C@@H]4CCN(C(=O)C5CC5)C4)n3)c2C1 (stereo not given in full) | 49.9 | 
NC(=O)C1Cc2nc(-c3ccc(F)c(C(F)(F)F)c3)n(-c3ccnc(N[C@@H]4CCCN(C(=O)C5CC5)C4)n3)c2C1 (stereo not given in full) | 104 | 
NC(=O)C1Cc2nc(-c3ccc(F)c(C(F)(F)F)c3)n(-c3ccnc(N[C@H]4CCCN(C(=O)C5CC5)C4)n3)c2C1 (stereo not given in full) | 6.39 | 
NC(=O)C1Cc2nc(-c3ccc(Cl)c(Cl)c3)n(-c3ccnc(N[C@H]4CCN(C(=O)C5CC5)C4)n3)c2C1 (stereo not given in full) | 15.4 | 
CNC(=O)C1Cc2nc(-c3ccc(Cl)c(Cl)c3)n(-c3ccnc(N[C@H]4CCCN(C(=O)C5CC5)C4)n3)c2C1 (stereo not given in full) | 1.2 | IC50 [2]: > 10000 nM; Ratio IC50 [12]: 100; IC50 [3]: 86.5 nM; IC50 [4]: 532 nM; IC50 [5]: 15.4 nM
CNC(=O)C1Cc2nc(-c3ccc4c(c3)OCO4)n(-c3ccnc(N[C@H]4CCN(C(=O)C5CC5)C4)n3)c2C1 (stereo not given in full) | 180 | 
CNC(=O)C1Cc2nc(-c3ccc(Cl)c(Cl)c3)n(-c3ccnc(N[C@@H]4CCCN(C(=O)C5CC5)C4)n3)c2C1 (stereo not given in full) | 4.83 | 
CCOC(=O)C1Cc2nc(-c3ccc(F)c(C(F)(F)F)c3)n(-c3ccnc(N[C@@H]4CCN(C(=O)C5CC5)C4)n3)c2C1 (stereo not given in full) | 63.1 | 
CCOC(=O)C1Cc2nc(-c3ccc(F)c(C(F)(F)F)c3)n(-c3ccnc(N[C@@H]4CCCN(C(=O)C5CC5)C4)n3)c2C1 (stereo not given in full) | 65.4 | 
NC(=O)C1Cc2nc(-c3ccc4c(c3)OCO4)n(-c3ccnc(N[C@@H]4CCN(C(=O)C5CC5)C4)n3)c2C1 (stereo not given in full) | 103 | 
NC(=O)C1Cc2nc(-c3ccc4ccccc4c3)n(-c3ccnc(N[C@H]4CCN(C(=O)C5CC5)C4)n3)c2C1 (stereo not given in full) | 14.8 | 
NC(=O)C1Cc2nc(-c3ccc4c(c3)OCO4)n(-c3ccnc(N[C@H]4CCCN(C(=O)C5CC5)C4)n3)c2C1 (stereo not given in full) | 10 | viability at 10 µM (Cortical neurone): 55.1%
CNC(=O)C1Cc2nc(-c3ccc4ccccc4c3)n(-c3ccnc(N[C@@H]4CCCN(C(=O)C5CC5)C4)n3)c2C1 (stereo not given in full) | 1.08 | IC50 [2]: 1660 nM; Ratio IC50 [12]: 50; IC50 [3]: 75.5 nM; IC50 [4]: 37.5 nM; IC50 [5]: 16.3 nM
CNC(=O)C1Cc2nc(-c3ccc(F)c(C(F)(F)F)c3)n(-c3ccnc(N[C@@H]4CCN(C(=O)C5CC5)C4)n3)c2C1 (stereo not given in full) | 300 | 
CCOC(=O)C1Cc2nc(-c3ccc(F)c(C(F)(F)F)c3)n(-c3ccnc(N[C@H]4CCN(C(=O)C5CC5)C4)n3)c2C1 (stereo not given in full) | 453 | 
NC(=O)C1Cc2nc(-c3ccc4ccccc4c3)n(-c3ccnc(N[C@@H]4CCN(C(=O)C5CC5)C4)n3)c2C1 (stereo not given in full) | 24.9 | 
